Source: PubChem BioAssay (NCI)
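Tested at 5 concentrations; 48 h exposure; 96-well plates; endpoints linearly interpolated, else capped at highest concentration. TGI marks complete inhibition of growth.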

How the values were obtained:
Experiment in all cases: inhibition of tumour cell growth, NCI panel, 48 h
[1] = system: KM20L2 colon
[2] = system: HT29 colon
[3] = system: KM12 colon
[4] = system: NCI-H522 lung
[5] = system: A549 NSCLC
[6] = system: SNB-19 CNS
[7] = system: RPMI-8226 leukemia
[8] = system: K-562 leukemia
[9] = system: RXF 393 renal
[10] = system: COLO 205 colon
[11] = system: UACC-62 melanoma
[12] = system: SR leukemia
[13] = system: UACC-257 melanoma
[14] = system: OVCAR-3 ovarian
[15] = system: HOP-62 NSCLC
[16] = system: HOP-18 NSCLC
[17] = system: NCI-H460 lung
[18] = system: SN12C renal
[19] = system: 786-0 renal
[20] = system: SW-620 colon
[21] = system: OVCAR-8 ovarian
[22] = system: HOP-92 NSCLC
[23] = system: SNB-75 CNS
[24] = system: IGROV1 ovarian
[25] = system: M19-MEL melanoma
[26] = system: TK-10 renal
[27] = system: SNB-78 CNS
[28] = system: SF-295 CNS
[29] = system: CCRF-CEM leukemia
[30] = system: HCT-15 colon
[31] = system: RXF-631 renal
[32] = system: A498 renal
[33] = system: HCC-2998 colon
[34] = system: SF-268 CNS
[35] = system: SK-MEL-5 melanoma
[36] = system: OVCAR-4 ovarian
[37] = system: DLD-1 colon
[38] = system: U251 CNS
[39] = system: SK-OV-3 ovarian
[40] = system: NCI-H23 lung
[41] = system: NCI-H226 lung
[42] = system: CAKI-1 renal
[43] = system: LOX IMVI melanoma
[44] = system: SK-MEL-28 melanoma
[45] = system: EKVX NSCLC
[46] = system: HCT-116 colon
[47] = system: MOLT-4 leukemia
[48] = system: ACHN renal
[49] = system: M14 melanoma
[50] = system: SF-539 CNS
[51] = system: UO-31 renal
[52] = system: LXFL 529 NSCLC
[53] = system: MALME-3M melanoma
[54] = system: HL-60(TB) leukemia
[55] = system: OVCAR-5 ovarian
[56] = system: SK-MEL-2 melanoma
[57] = system: DMS 273 small cell lung
[58] = system: DMS 114 small cell lung

Question: For CCOC(=O)C1=NC(c2ccccc2)(c2ccccc2)OC1=C(Cl)Cl, which TGI [1] is on record?
Answer: The TGI was over 100 µM.

Question: What about the TGI [2] of the same compound?
Answer: The TGI was over 100 µM.

Question: What about the TGI [3] of the same compound?
Answer: Its TGI is over 100 µM.

Question: What about the TGI [4] of the same compound?
Answer: The TGI was over 100 µM.

Question: And the TGI [5]?
Answer: Its TGI is over 100 µM.

Question: And the TGI [6]?
Answer: Its TGI is over 100 µM.

Question: What about the TGI [7] of the same compound?
Answer: Its TGI is over 100 µM.

Question: What about the TGI [8] of the same compound?
Answer: Its TGI is over 100 µM.

Question: What about the TGI [9] of the same compound?
Answer: The TGI was 12.5 µM.

Question: What about the TGI [10] of the same compound?
Answer: Its TGI is over 100 µM.

Question: And the TGI [11]?
Answer: Its TGI is over 100 µM.

Question: And the TGI [12]?
Answer: Its TGI is over 100 µM.

Question: And the TGI [13]?
Answer: Its TGI is over 100 µM.

Question: What about the TGI [14] of the same compound?
Answer: The TGI was over 100 µM.

Question: And the TGI [15]?
Answer: The TGI was over 100 µM.

Question: And the TGI [16]?
Answer: Its TGI is over 100 µM.

Question: And the TGI [17]?
Answer: Its TGI is over 100 µM.

Question: What about the TGI [18] of the same compound?
Answer: The TGI was over 100 µM.

Question: What about the TGI [19] of the same compound?
Answer: The TGI was over 100 µM.

Question: And the TGI [20]?
Answer: Its TGI is over 100 µM.

Question: And the TGI [21]?
Answer: The TGI was over 100 µM.

Question: And the TGI [22]?
Answer: Its TGI is over 100 µM.

Question: What about the TGI [23] of the same compound?
Answer: The TGI was over 100 µM.

Question: What about the TGI [24] of the same compound?
Answer: Its TGI is over 100 µM.

Question: And the TGI [25]?
Answer: The TGI was over 100 µM.

Question: What about the TGI [26] of the same compound?
Answer: The TGI was over 100 µM.

Question: What about the TGI [27] of the same compound?
Answer: Its TGI is over 100 µM.

Question: What about the TGI [28] of the same compound?
Answer: Its TGI is over 100 µM.

Question: What about the TGI [29] of the same compound?
Answer: The TGI was over 100 µM.

Question: What about the TGI [30] of the same compound?
Answer: The TGI was over 100 µM.

Question: What about the TGI [31] of the same compound?
Answer: The TGI was over 100 µM.

Question: What about the TGI [32] of the same compound?
Answer: The TGI was over 100 µM.

Question: What about the TGI [33] of the same compound?
Answer: Its TGI is 57.4 µM.

Question: And the TGI [34]?
Answer: Its TGI is over 100 µM.

Question: And the TGI [35]?
Answer: Its TGI is over 100 µM.

Question: And the TGI [36]?
Answer: The TGI was over 100 µM.

Question: What about the TGI [37] of the same compound?
Answer: Its TGI is over 100 µM.

Question: What about the TGI [38] of the same compound?
Answer: The TGI was over 100 µM.

Question: What about the TGI [39] of the same compound?
Answer: Its TGI is over 100 µM.

Question: What about the TGI [40] of the same compound?
Answer: Its TGI is over 100 µM.

Question: What about the TGI [41] of the same compound?
Answer: The TGI was over 100 µM.

Question: And the TGI [42]?
Answer: Its TGI is over 100 µM.

Question: What about the TGI [43] of the same compound?
Answer: The TGI was over 100 µM.

Question: And the TGI [44]?
Answer: The TGI was over 100 µM.

Question: And the TGI [45]?
Answer: Its TGI is over 100 µM.

Question: And the TGI [46]?
Answer: The TGI was over 100 µM.

Question: And the TGI [47]?
Answer: The TGI was over 100 µM.

Question: What about the TGI [48] of the same compound?
Answer: Its TGI is over 100 µM.

Question: What about the TGI [49] of the same compound?
Answer: The TGI was over 100 µM.

Question: What about the TGI [50] of the same compound?
Answer: The TGI was over 100 µM.

Question: And the TGI [51]?
Answer: The TGI was over 100 µM.

Question: And the TGI [52]?
Answer: Its TGI is over 100 µM.

Question: And the TGI [53]?
Answer: The TGI was over 100 µM.

Question: What about the TGI [54] of the same compound?
Answer: Its TGI is 34.8 µM.

Question: What about the TGI [55] of the same compound?
Answer: The TGI was over 100 µM.

Question: What does the source list for Cc1ccc(N=Nc2c(-c3ccccc3)nn(C(=O)CC(=O)Nc3ccc(Cl)cc3)c2-c2ccccc2)cc1?
Answer: TGI [1]: > 100 µM; TGI [2]: > 100 µM; TGI [3]: > 100 µM; TGI [4]: > 100 µM; TGI [5]: > 100 µM; TGI [6]: > 100 µM; TGI [7]: 86.7 µM; TGI [8]: > 100 µM; TGI [9]: 99.6 µM; TGI [10]: > 100 µM; TGI [11]: > 100 µM; TGI [12]: 57.3 µM; TGI [13]: > 100 µM; TGI [14]: 99.6 µM; TGI [56]: > 100 µM; TGI [15]: > 100 µM; TGI [16]: > 100 µM; TGI [17]: > 100 µM; TGI [18]: > 100 µM; TGI [19]: > 100 µM; TGI [20]: > 100 µM; TGI [21]: > 100 µM; TGI [22]: 66.9 µM; TGI [23]: 73.5 µM; TGI [24]: > 100 µM; TGI [27]: > 100 µM; TGI [28]: > 100 µM; TGI [29]: 72.5 µM; TGI [30]: > 100 µM; TGI [31]: > 100 µM; TGI [32]: 94.9 µM; TGI [33]: > 100 µM; TGI [34]: > 100 µM; TGI [35]: > 100 µM; TGI [36]: > 100 µM; TGI [37]: > 100 µM; TGI [38]: > 100 µM; TGI [39]: > 100 µM; TGI [57]: > 100 µM; TGI [40]: > 100 µM; TGI [41]: > 100 µM; TGI [42]: > 100 µM; TGI [43]: > 100 µM; TGI [44]: > 100 µM; TGI [45]: 18.3 µM; TGI [58]: > 100 µM; TGI [46]: > 100 µM; TGI [47]: 79.1 µM; TGI [48]: > 100 µM; TGI [49]: > 100 µM; TGI [50]: > 100 µM; TGI [51]: 86.3 µM; TGI [52]: 94.5 µM; TGI [53]: > 100 µM; TGI [54]: > 100 µM; TGI [55]: > 100 µM
